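Step 1: Grow cells in 96-well plates. Step 2: Expose to compound for 48 hours at 5 concentrations. Step 3: Interpolate endpoints linearly; if unreached, use highest concentration. GI50: concentration for 50% inhibition of growth.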 Activity calls are given as the source filed them. Rule as the data show it: active = GI50 up to about 1.1 µM and inactive = higher.
What was measured:
Test in all cases: inhibition of tumour cell growth, NCI panel, 48 h
XF498 = system: XF498
DMS-273 = system: DMS-273
M19-MEL = system: M19-MEL
DMS-114 = system: DMS-114
DLD-1 = system: DLD-1
LXFL 529 = system: LXFL 529
RXF 631 = system: RXF 631
T47D = system: T47D
HOP-18 = system: HOP-18

Measured: GI50

O=[N+]([O-])c1ccc2c(Nc3ccccc3-c3ccccc3Nc3c4ccccc4nc4cc([N+](=O)[O-])ccc34)c3ccccc3nc2c1
inactive: XF498 1.59 µM | DMS-273 4.58 µM | M19-MEL 6.56 µM | DMS-114 11.1 µM | DLD-1 2.63 µM | LXFL 529 2.61 µM | RXF 631 5.9 µM | T47D 7.24 µM | HOP-18 > 100 µM

CCOC(=O)C(=O)Nc1c(C)cccc1CC
inactive: XF498 > 100 µM | M19-MEL > 100 µM | DMS-114 > 100 µM | DLD-1 > 100 µM | LXFL 529 > 100 µM | RXF 631 > 100 µM | HOP-18 > 100 µM

CCOC(=O)C1C(NC(N)=O)N(Cc2ccccc2)C(=O)N1Cc1ccccc1 (stereo not drawn)
inactive: XF498 > 100 µM | DMS-273 > 100 µM | M19-MEL > 100 µM | DMS-114 > 100 µM | DLD-1 > 100 µM | LXFL 529 > 100 µM | RXF 631 > 100 µM | HOP-18 > 100 µM

N#CN1CCC=C(c2cc3ccccc3[nH]2)C1
inactive: DMS-273 428 µM | M19-MEL 243 µM | DLD-1 370 µM | LXFL 529 236 µM | RXF 631 281 µM | HOP-18 > 448 µM

CC1CC[C@]2(C(=O)O)CCC3(C)C(=CC(=O)C4[C@@]5(C)CCC(=O)C(C)(C)C5CC[C@]43C)[C@@H]2[C@H]1C (stereo partly drawn)
inactive: XF498 10 µM | M19-MEL 23.3 µM | DMS-114 19.7 µM | LXFL 529 18.6 µM | RXF 631 27.3 µM | HOP-18 31.9 µM

O=C1/C(=C/c2cccc([N+](=O)[O-])c2)COc2ccccc21
inactive: DMS-273 1.95 µM | M19-MEL 2.32 µM | DMS-114 2.84 µM | DLD-1 2.94 µM | LXFL 529 2.43 µM | RXF 631 6 µM | HOP-18 4.55 µM

CN(C)CCn1cnc2sc3ccccc3c21
inactive: XF498 > 100 µM | M19-MEL > 100 µM | DMS-114 > 100 µM | LXFL 529 > 100 µM | RXF 631 > 100 µM | HOP-18 20.2 µM

O=C(O)[C@@H]1CCCC[C@@H]1C(=O)N(C1CCCCC1)C1CCCCC1
inactive: DMS-273 > 100 µM | M19-MEL > 100 µM | DMS-114 > 100 µM | DLD-1 > 100 µM | LXFL 529 > 100 µM | RXF 631 > 100 µM

NC(=S)N/N=C(\CC1OC(=O)c2ccccc21)c1ccc(Cl)cc1 (stereo not drawn)
inactive: XF498 47 µM | DMS-273 41 µM | M19-MEL 21.9 µM | DMS-114 24.6 µM | DLD-1 41.3 µM | LXFL 529 28.8 µM | RXF 631 24 µM

Cc1cc(C2CCCCC2)n(O)c(=O)c1 [CICLOPIROX OLAMINE]
inactive: XF498 10.7 µM | M19-MEL 7.52 µM | DMS-114 4.74 µM | DLD-1 5.46 µM | LXFL 529 4.2 µM | RXF 631 5.37 µM | HOP-18 39.8 µM

CC1(C)C(=O)C(C)(C)C1=NNC(N)=S
inactive: XF498 > 100 µM | DMS-273 > 100 µM | M19-MEL > 100 µM | DMS-114 > 100 µM | LXFL 529 > 100 µM | RXF 631 > 100 µM

C=CC1(C)/C(=N\O)C(C)(CC)C(=O)N1O (stereo not drawn)
inactive: XF498 > 100 µM | DMS-273 > 100 µM | M19-MEL > 100 µM | DMS-114 > 100 µM | DLD-1 > 100 µM | LXFL 529 > 100 µM | RXF 631 > 100 µM | HOP-18 > 100 µM

COc1ccccc1NC(=O)C(CC(C(=O)Nc1ccccc1OC)/C(C)=N/Nc1ccc([N+](=O)[O-])cc1[N+](=O)[O-])/C(C)=N/Nc1ccc([N+](=O)[O-])cc1[N+](=O)[O-] (stereo not drawn)
inactive: XF498 51.6 µM | DMS-273 56 µM | M19-MEL > 100 µM | DLD-1 80.4 µM | LXFL 529 32.4 µM | RXF 631 40.6 µM | HOP-18 > 95.3 µM

Cc1cccc(C)c1NC(=O)CCCC(=O)CC(=O)/C=C/c1ccccc1
inactive: XF498 > 100 µM | DMS-273 > 100 µM | M19-MEL > 100 µM | DMS-114 > 100 µM | DLD-1 > 100 µM | LXFL 529 > 100 µM | RXF 631 > 100 µM | HOP-18 > 100 µM

CCN(C(=N)C#N)c1ccccc1
inactive: DMS-273 > 42.5 µM | M19-MEL > 55.1 µM | DMS-114 > 54.8 µM | DLD-1 > 40.7 µM | LXFL 529 > 100 µM | RXF 631 > 100 µM | HOP-18 > 100 µM

NC(CCc1nc(-c2ccc(Cl)cc2)cs1)C(=O)O (stereo not drawn)
inactive: DMS-273 > 100 µM | M19-MEL > 100 µM | DLD-1 > 100 µM | LXFL 529 > 100 µM | RXF 631 > 100 µM | HOP-18 > 100 µM

NC1(C(=O)O)CCC(C(=O)O)CC1 (stereo not drawn)
inactive: XF498 > 100 µM | DMS-273 > 100 µM | M19-MEL > 100 µM | DMS-114 > 100 µM | DLD-1 > 100 µM | LXFL 529 > 100 µM | RXF 631 > 100 µM | HOP-18 > 100 µM

O=c1c2ccccc2nc2n1-c1ccccc1SC2
inactive: XF498 30.6 µM | DMS-273 47.2 µM | M19-MEL 67.1 µM | DMS-114 34.7 µM | DLD-1 55.5 µM | LXFL 529 34.4 µM | RXF 631 93.5 µM

CC(=O)CCn1[nH]c(=O)c(Cl)c(Cl)c1=O
inactive: XF498 > 100 µM | DMS-273 > 100 µM | M19-MEL > 100 µM | DMS-114 > 100 µM | DLD-1 > 100 µM | LXFL 529 > 100 µM | HOP-18 > 100 µM

From ChEMBL document CHEMBL1201862, “PubChem BioAssay data set” (2004)
